Test results from patent US6124342A, “Pharmaceutical compositions containing pyrylium compounds, pyrylium salts and process for manufacturing a medicament containing the aforesaid compounds” (priority 1993, dated 2000).
Several values for one entry are separate records, joined by “and”; a condition that tells them apart may be missing. Identical values can stand only once. Like-named read-outs stand apart in the source and are kept apart here.

Tests used:
[1] = system: skin of each mouse; experiment: Irradiation of the back skin of medicated mice without tumour; type: in vivo, nude mice; conditions: for change on irradiation of mice without tumour: group E or E'; for affinity for cancer cells versus normal cells: inferred from group E or E'
Protocol: Ten nude mice having weight 200-400 g were selected, and they were separated into five groups referred to as A, B, C, D and E, each containing two nude mice. Each of the mice was inocculated on its back with KATO III, which is a culture of stomach cancer cells from a human patient. The cancer cells were inocculated into the central part of the back of each mouse, after which the mice were kept for ten days. […] The mice in groups A, B and E were injected with the compound 1 (Y=I) in balanced saline solution through a vein in the leg. […] In group E, a part of every mouse's back was irradiated with the white light. In each case the amount of irradiation was 50J. Thereafter, the cancerous region of each mouse in the group a to D was observed and the skin of each mouse in the group E was observed.

[2] = system: KATO III; experiment: Deepness of necrotic tumour after irradiation; type: in vivo, human; conditions: 1 mg/kg; 580 nm (half-width=20 nm); 10J; one day after irradiation
Protocol: Four nude mice of weight 200-400 g were selected and were separated into groups X and Y, each containing two mice. Next, KATO III was inocculated into every mouse in the same way as in Example 10, after which the mice were kept for three weeks to fix the cancer cells. After three weeks the cancer in each mouse had grown and the size of the cancer was about 13 mm wide, 13 mm long and about 8 mm high. Next the mice in group X were injected via the leg with a balanced saline solution of the compound 1, and the mice of Group Y were injected with a balanced saline solution of the compound 16 via the leg. The dose of the compound 1 or 16 was adjusted to be 1 mg of the compound 1 or the compound 16 per 1 kg of the mouse's weight. Subsequently, the mice in group X were irradiated with radiation of wavelength 580 nm (half-width=20 nm) which was separated by means of a filter, and the mice in group Y were irradiated with radiation having a wavelength 720 nm (half-width=20 nm) which was separated with a filter. The amount of energy irradiated was 10J. One day after the irradiation the depth of the tumour which had become necrotic was measured.

[3] = Light absorption characteristics without DNA (Table 2); type: physicochemical
Excerpt: (§1) Typical examples of compounds represented by the formula [I] which can be used as the active ingredient in a medicament for the photochemical treatment of cancer according to the present invention are shown in Table 1 below. Almost all the compound shown in Table 2 have their own absorption peaks in the region 600 nm or above, and have molar absorption coefficients as large as 5-8.5×10^4 l/mol.cm which enables more efficient use to be made of the light in photochemical treatment. Furthermore, compound 1 in Table 2 has an absorption peak in the region below 600 nm, but it has sufficiently strong absorption that it still provides better treatment efficiency at wavelength greater than 600 nm.

[4] = system: KATO III; experiment: Photochemical treatment of KATO III tumours in nude mice; type: in vivo, human; conditions: Tables 6 and 7
Protocol: Ten nude mice having weight 200-400 g were selected, and they were separated into five groups referred to as A, B, C, D and E, each containing two nude mice. Each of the mice was inocculated on its back with KATO III, which is a culture of stomach cancer cells from a human patient. The cancer cells were inocculated into the central part of the back of each mouse, after which the mice were kept for ten days. […] The mice in groups A, B and E were injected with the compound 1 (Y=I) in balanced saline solution through a vein in the leg. The amount of compound 1 which was administered to each mouse was 1 mg per 1 kg of the mouse's weight. Thereafter, the cancerous growth in each mouse in the group A and C was irradiated with white light in which the radiation of wavelength 400 nm or less and radiation of wavelength 1000 nm or above was filtered out. In group E, a part of every mouse's back was irradiated with the white light. In each case the amount of irradiation was 50J. Thereafter, the cancerous region of each mouse in the group a to D was observed and the skin of each mouse in the group E was observed.
The same test as in Example 10 was carried out except that the compound 2 was used in place of the compound 1. the results are shown in Table 7.

[5] = system: cancer cells; experiment: Uptake by cancer cells; type: cell-based, mice
Protocol: Four such cultures using the same medium were prepared.

[6] = system: L-929 cells; experiment: Photochemical killing of cultured cancer cells (fluorescence microscope irradiation); conditions: for cytotoxicity at 0.25 µg/mL: read-out: percentage of cells which had died, 0.25 μg/ml; for cytotoxicity at 0.5 µg/mL: read-out: percentage of cells which had died, 0.5 μg/ml; for cell killing without irradiation: compound added, not irradiated; for cytotoxicity at 0.05 µg/mL: read-out: percentage of cells which died, 0.05 μg/ml; for cytotoxicity at 0.075 µg/mL: read-out: percentage of cells which died, 0.075 μg/ml
Protocol: L-929 cells which are typical cultured cancer cells from mice were planted onto a culture medium containing E-MEM +10% FCS. The density of the cells in the medium was 10^6 cells/dish (20 ml). Thereafter, the cells were maintained at 37° C. and cultured for 36 hours. Four such cultures using the same medium were prepared. […] Then radiation of wavelength from 560-610 nm to which the compound 1 is responsive was supplied using a fluorescence microscope for the interval of time indicated in Table 3. Thereafter, each medium was cultured for 12 hours, after which the cells were observed using a microscope.
The light used to irradiate the cells at a wavelength of 600-650 nm.
The cells were irradiated with light of wavelength 700-750 nm.

[7] = system: DNA; experiment: Light absorption characteristics under existence of DNA (Table 2); type: physicochemical; conditions: with DNA
Excerpt: as §1

[8] = system: nude mice; experiment: Acute toxicity test, intravenous injection; type: in vivo; conditions: balanced saline solution; i.v. leg vein; 1 mg/kg; 2 nude mice
Protocol: The compound 1 (Y=I) was dissolved into a balanced saline solution and was injected into each of 2 nude mice of weight 200-400 g through a vein in the leg of the mouse. The amount of solution injected was 1 mg to 1 kg of the weight of each mouse.
The toxicity test of Example 6 was repeated except that the compound 2 was used in place of the compound 1.
The test of Example 6 was repeated except that the compound 1 (Y=I) was dissolved in dimethyl sulfoxide. The amount of solution injected was 1 mg per 1 kg of the mouse's weight. Subsequent injections on further groups of mice were carried out at 5 mg per 1 kg of the mouse's weight and 25 mg per 1 kg of the mouse's weight.
The same test as in Example 8 was carried out except that the active ingredient was compound 2 (Y=I) instead of compound 1.

[9] = Mus musculus, L929, 12 h, 3 min, 560-610 nm, Y=I
[10] = Mus musculus, L929, 12 h, 5 min, 560-610 nm, Y=I
[11] = Mus musculus, L929, 1 min, 1 min, 600-650 nm, Y=I
[12] = Mus musculus, L929, 0.05 h, 3 min, 600-650 nm, Y=I
[13] = Mus musculus, L929, 5 min, 5 min, 600-650 nm, Y=I

SMILES	change on irradiation of mice without tumour [1]	affinity for cancer cells versus normal cells [1]	Molar absorption coefficient ε [3] [L/mol/cm]	Absorption (max) Peak Under no existence of DNA [3] [nm]	effectiveness in photochemical treatment of human cancer cells growing in live mice [4]	cell killing without irradiation [6]	Absorption (max) Peak Under existence of DNA [7] [nm]	adverse effects (acute toxicity) [8]	further results
Cc1cc(-c2ccc(N(C)C)cc2)cc(-c2ccc(N(C)C)cc2)[o+]1 [Compound 1, 2-methyl-4,6-bis-(4-N,N-dimethylaminophenyl) pyrylium iodide]	no change was observed	different from the affinity	84600	540	effective in the photochemical treatment of human cancer cells growing in live mice	not killed and continued to grow in culture	580	no adverse effects	Change of skin ([1]; Table 6, group E: 1 mg/kg i.v., irradiated 50J): No Change; Deepness of died tumour [2]: 4.5 mm and 4.8 mm; absorption peak region ([3]; Table 2): below 600 nm; uptake by the cancer cells [5]: rapid; effectiveness to kill cancer cells ([6]; 0.1-0.5 μg/ml, irradiation 1-5 minutes): effective to kill cancer cells; cytotoxicity at 0.1 µg/mL ([6]; Mus musculus, L929, 12 h, read-out: percentage of cells which had died, 0.1 μg/ml, 5 min, 560-610 nm, Y=I): 100%; cytotoxicity at 0.25 µg/mL [6, 9]: ~100%; cytotoxicity at 0.25 µg/mL [6, 10]: 100%; cytotoxicity at 0.5 µg/mL ([6]; Mus musculus, L929, 12 h, 1 min, 560-610 nm, Y=I): ~90%; cytotoxicity at 0.5 µg/mL [6, 9]: ~100%; cytotoxicity at 0.5 µg/mL [6, 10]: 100%
Cc1cc(-c2ccc(N(C)C)cc2)cc(-c2ccc(N(C)C)cc2)[s+]1 [Compound 2, 2-methyl-4,6-bis-(4-N,N-dimethylaminophenyl)thiopyrylium iodide]	no change was observed	different from the affinity	49500	580	effective in the photochemical treatment of human cancer cells growing in live mice	not killed and continued to grow in culture	620	no ill effects	Change of skin ([1]; Table 7, group E': medicated, irradiated): No Change; cytotoxicity at 0.05 µg/mL [6, 11]: ~10%; cytotoxicity at 0.075 µg/mL [6, 11]: 80%; cytotoxicity at 0.1 µg/mL ([6]; Mus musculus, L929, 1 min, read-out: percentage of cells which died, 0.1 μg/ml, 1 min, 600-650 nm, Y=I): 100%; cytotoxicity at 0.05 µg/mL [6, 12]: 80%; cytotoxicity at 0.075 µg/mL [6, 12]: 100%; cytotoxicity at 0.1 µg/mL ([6]; Mus musculus, L929, 0.05 h, read-out: percentage of cells which died, 0.1 μg/ml, 3 min, 600-650 nm, Y=I): 100%; cytotoxicity at 0.025 µg/mL ([6]; Mus musculus, L929, 5 min, read-out: percentage of cells which died, 0.025 μg/ml, 5 min, 600-650 nm, Y=I): ~50%; cytotoxicity at 0.05 µg/mL [6, 13]: 100%; cytotoxicity at 0.075 µg/mL [6, 13]: 100%; cytotoxicity at 0.1 µg/mL ([6]; Mus musculus, L929, 5 min, read-out: percentage of cells which died, 0.1 μg/ml, 5 min, 600-650 nm, Y=I): 100%; killing effect compared with another compound ([6]; with irradiation): greater killing effect than compound 1
CN(C)c1ccc(C=Cc2cc(-c3ccccc3)cc(-c3ccccc3)[s+]2)cc1 [Compound 8]				650			610		
CN(C)c1ccc(C=CC=Cc2cc(-c3ccccc3)[o+]c(-c3ccccc3)c2)cc1 [Compound 9]				660			720		
CN(C)c1ccc(C=CC(C=Cc2ccc(N(C)C)cc2)=Cc2cc(-c3ccccc3)[o+]c(-c3ccccc3)c2)cc1 [Compound 11]				625			660		
CCN(CC)c1ccc(C=Cc2ccc(C=Cc3cc(-c4ccccc4)cc(-c4ccccc4)[o+]3)cc2)cc1 [Compound 17]				690			720		
